IC50 data for 15 molecules are collected here from US8912169B2, “Beta-lactamase inhibitors” (VenatoRx Pharmaceuticals, Inc., priority 2012, dated 2014).

Read-outs that look alike come from different tables or passages of the source.

Holding throughout (format): biochemical
One experiment addresses T1, KPC-2 (Klebsiella pneumoniae, UniProt Q9F663).
T1 construct: made in house; host or cells: E. coli BL21(DE3)
Put plainly: β-lactamase enzyme inhibition, KPC-2. Conditions: substrate imipenem, 300 nm; read-out: Class A KPC-2 IC50. Here is the method: (§1) For SHV-5, Kpc-2, p99AmpC and OXA-1 β-lactamases, E. coli BL21(DE3) bacterial cells carrying expression plasmids (expressed as native untagged proteins) for the individual β-lactamases were grown in 1 L of Superbroth (Teknova Inc. Hollister, Calif.) supplemented with 100 μg/mlkanamycin selection and 1×5052 (0.5% glycerol, 0.05% glucose and 0.2% α-lactose) at 35° C. for 18-20 hours. Cells were harvested by centrifugation (4,000×g, 4° C., 20 min), resuspended in 50 ml of 10 mM HEPES pH 7.5 ( 1/20 of the initial volume). The cells were lysed by sonication (5 pulses of 45 seconds) at 45 W on ice. The lysates were clarified by centrifugation at 10,000×g for 40 minutes at 4° C. Samples were diluted 5-fold in 50 mM sodium acetate pH 5.0, stored overnight at 4° C., after which they were centrifuged at 10,000×g for 30 minutes to clarify, and filtered through 0.45 μm filters. The samples were loaded onto a 5 ml Capto S sepharose cation exchange column (GE Healthcare) pre-equilibrated with 50 mM sodium acetate pH 5.0. The column was washed with 5 column volumes of 50 mM sodium acetate pH 5.0 to wash out unbound protein and a linear gradient of NaCl (0 to 500 mM) was used to elute the protein (over 16 CV) from the column. Fractions were assayed for β-lactamase activity using Centa (Calbiochem, Gibbstown, N.J.) or Nitrocefin (EMD Millipore chemicals, Darmstadt, Germany) as a reporter β-lactamase substrate for activity in the isolated fractions. Active fractions were pooled, concentrated and further purified by gel filtration chromatography on a Superdex 75 prep grade gel filtration column (GE Healthcare, Piscataway, N.J.) pre-equilibrated in 50 mM Hepes pH 7.5, 150 mM NaCl. Active fractions were pooled concentrated, quantitated by BCA protein determination (Thermo Scientific, Rockford, Ill.), dialyzed into PBS and frozen at −80° C. in 20% glycerol until use.
(§2) An equal volume of diluted enzyme stock was added, and the plates were incubated at 37° C. for 15 min. Nitrocefin was used as substrate for p99 AmpC, VIM-2 and OXA-1 and dispensed into each well at a final concentration of 100 μM. Absorbance at 486 nm was immediately monitored for 10 min using a Biotek Powerwave XS2 microplate spectrophotometer using the GENS software package (Biotek Instruments, Winooski Vt.). In an analogous fashion, imipenem was used as substrate for Kpc-2 and Cefotaxime was used for SHV-5, while changes in absorbance upon hydrolysis of the β-lactam ring were monitored at 300 nm and 260 nm respectively in UV-transparent 96-well microtiter assay plates. Maximum rates of hydrolysis were compared to those in control wells (without inhibitors), and percentages of enzyme inhibition were calculated for each concentration of inhibitor. The concentration of inhibitor needed to reduce the initial rate of hydrolysis of substrate by 50% (IC50) was calculated as the residual activity of β-lactamase at 486 nm using GraFit version 7 kinetics software package (Erithacus Software, Surrey, UK).
(§3) Using the methodology described above, examples of the current invention were evaluated for their ability to inhibit β-lactamase enzymes from all four Ambler classifications (A through D). […] NT=Not tested.

For a further experiment, the target named is T2, OXA-1 (Escherichia coli, UniProt P13661).
T2 construct: made in house; host or cells: E. coli BL21(DE3)
Put plainly: β-lactamase enzyme inhibition, OXA-1. Conditions: substrate Nitrocefin 100 μM, 486 nm; read-out: Class D OXA-1 IC50. Here is the method:
as §1, §2, §3

A further experiment addresses T3, p99 AmpC (Enterobacter cloacae, UniProt P05364).
T3 construct: made in house; host or cells: E. coli BL21(DE3)
Put plainly: β-lactamase enzyme inhibition, p99 AmpC. Here is the method:
as §1, §2, §3

The next experiment deals with T4, SHV-5 (Klebsiella pneumoniae, UniProt P0A3M1).
T4 construct: made in house; host or cells: E. coli BL21(DE3)
The experiment in a line: β-lactamase enzyme inhibition, SHV-5. The procedure:
as §1, §2, §3

The target of a further experiment is T5, VIM-2 (Escherichia coli, UniProt Q5U7L7).
T5 construct: made in house; host or cells: E. coli BL21(DE3)
The experiment in a line: β-lactamase enzyme inhibition, VIM-2. Conditions: substrate Nitrocefin 100 μM, 486 nm; read-out: Class B VIM-2 IC50. The procedure:
For Vim-2 metallo β-lactamase, the procedure was identical with the following exceptions, first the protein was not pH adjusted to pH 5 with 50 mM sodium acetate, second, the chromatography step was changed to a 5 ml Q sepharose anion exchange column pre-equilibrated with 50 mM Hepes pH 7.5, and elution of the protein was achieved by a linear gradient of NaCl (0-600 mM). Finally, the VIM-2 purification required a second run (3rd step) on the Q sepharose anion exchange column to achieve acceptable purity (>90%).
as §2, §3

Where [1] appears, read: read-out: Class A SHV-5 IC50, substrate Cefotaxime, 260 nm.

The IC50 is the concentration that gives 50% inhibition. On to `NC[C@H]1CC[C@H](C(=O)N[C@H]2Cc3cccc(C(=O)O)c3OB2O)CC1` [Example 1, (R)-3-(trans-4-(aminomethyl)cyclohexanecarboxamido)-2-hydroxy-3,4-dihydro-2H-benzo[e][1,2]oxaborinine-8-carboxylic acid], for which the concentration for half-maximal inhibition (IC50) at KPC-2 was 100 to 1000 nM; on OXA-1, below 100 nM; on p99 AmpC, below 100 nM; on SHV-5, 1000 to 10000 nM; on VIM-2, 100 to 1000 nM.
With `N[C@H]1CC[C@H](C(=O)N[C@H]2Cc3cccc(C(=O)O)c3OB2O)CC1` [Example 2, (R)-3-(trans-4-aminocyclohexanecarboxamido)-2-hydroxy-3,4-dihydro-2H-benzo[e][1,2]oxaborinine-8-carboxylic acid], the half-inhibitory concentration (IC50) on KPC-2 was 100 to 1000 nM; on OXA-1, 100 to 1000 nM; against p99 AmpC, below 100 nM; at SHV-5 it was 10000 to 100000 nM; at VIM-2 it was 100 to 1000 nM.
For the molecule `NC[C@H]1CC[C@H](CC(=O)N[C@H]2Cc3cccc(C(=O)O)c3OB2O)CC1` [Example 3], the half-maximal inhibitory concentration (IC50) at KPC-2 is 100 to 1000 nM; on OXA-1, below 100 nM; at p99 AmpC, below 100 nM; against SHV-5, below 100 nM; on VIM-2, 1000 to 10000 nM.
With `N=C(N)NC[C@H]1CC[C@H](CC(=O)N[C@H]2Cc3cccc(C(=O)O)c3OB2O)CC1` [Example 4, (R)-3-(2-(trans-4-(guanidinomethyl)cyclohexyl)acetamido)-2-hydroxy-3,4-dihydro-2H-benzo[e][1,2]oxaborinine-8-carboxylic acid], the 50% inhibitory concentration (IC50) at KPC-2 is below 100 nM; at OXA-1, below 100 nM; against p99 AmpC, below 100 nM; at SHV-5, below 100 nM; on VIM-2, 100 to 1000 nM.
On to `CN(C)CC(=O)NC[C@H]1CC[C@H](CC(=O)N[C@H]2Cc3cccc(C(=O)O)c3OB2O)CC1` [Example 5, (R)-3-(2-(trans-4-((2-(dimethylamino)acetamido)methyl)cyclohexyl)acetamido)-2-hydroxy-3,4-dihydro-2H-benzo[e][1,2]oxaborinine-8-carboxylic acid], for which the IC50 on KPC-2 is below 100 nM; on OXA-1 it was below 100 nM; at p99 AmpC it was below 100 nM; at SHV-5, below 100 nM; at VIM-2, 1000 to 10000 nM.
Regarding `N[C@H]1CC[C@H](CC(=O)N[C@H]2Cc3cccc(C(=O)O)c3OB2O)CC1` [Example 6, (R)-3-(2-(trans-4-aminocyclohexyl)acetamido)-2-hydroxy-3,4-dihydro-2H-benzo[e][1,2]oxaborinine-8-carboxylic acid], the 50% inhibitory concentration (IC50) at KPC-2 is below 100 nM; at OXA-1, below 100 nM; at p99 AmpC it was below 100 nM; against SHV-5 it was below 100 nM; at VIM-2, 100 to 1000 nM.
Consider `N[C@H]1CC[C@@H](CC(=O)N[C@H]2Cc3cccc(C(=O)O)c3OB2O)CC1` [Example 7, (R)-3-(2-(cis-4-aminocyclohexyl)acetamido)-2-hydroxy-3,4-dihydro-2H-benzo[e][1,2]oxaborinine-8-carboxylic acid], for which the half-maximal inhibitory concentration (IC50) on KPC-2 was below 100 nM; on OXA-1, 100 to 1000 nM; against p99 AmpC, below 100 nM; against SHV-5, below 100 nM; on VIM-2, 1000 to 10000 nM.
As to `CN(C)C[C@H]1CC[C@H](CC(=O)N(C)[C@H]2Cc3cccc(C(=O)O)c3OB2O)CC1` [Example 8, (R)-3-(2-(trans-4-((dimethylamino)methyl)cyclohexyl)-N-methylacetamido)-2-hydroxy-3,4-dihydro-2H-benzo[e][1,2]oxaborinine-8-carboxylic acid], the IC50 at KPC-2 is below 100 nM; on OXA-1, 100 to 1000 nM; at p99 AmpC, below 100 nM; against SHV-5, below 100 nM; on VIM-2, 1000 to 10000 nM.
Regarding `N=C(N)N[C@H]1CC[C@H](CC(=O)N[C@H]2Cc3cccc(C(=O)O)c3OB2O)CC1` [Example 9, (R)-3-(2-(trans-4-guanidinocyclohexyl)acetamido)-2-hydroxy-3,4-dihydro-2H-benzo[e][1,2]oxaborinine-8-carboxylic acid], the IC50 at KPC-2 was below 100 nM; at OXA-1, below 100 nM; on p99 AmpC it was below 100 nM; at SHV-5, below 100 nM; on VIM-2 it was 100 to 1000 nM.
With `NCCNC[C@H]1CC[C@H](CC(=O)N[C@H]2Cc3cccc(C(=O)O)c3OB2O)CC1` [Example 10, (R)-3-(2-(trans-4-((2-aminoethylamino)methyl)cyclohexyl)acetamido)-2-hydroxy-3,4-dihydro-2H-benzo[e][1,2]oxaborinine-8-carboxylic acid], the 50% inhibitory concentration (IC50) on KPC-2 is below 100 nM; on OXA-1, 100 to 1000 nM; on p99 AmpC, below 100 nM; against SHV-5, below 100 nM; on VIM-2, 100 to 1000 nM.
As for `N=C(N)N1CCN([C@H]2CC[C@H](CC(=O)N[C@H]3Cc4cccc(C(=O)O)c4OB3O)CC2)CC1` [Example 24, (R)-3-(2-(trans-4-(4-carbamimidoylpiperazin-1-yl)cyclohexyl)acetamido)-2-hydroxy-3,4-dihydro-2H-benzo[e][1,2]oxaborinine-8-carboxylic acid], the 50% inhibitory concentration (IC50) is below 100 nM at KPC-2, below 100 nM at OXA-1, below 100 nM at SHV-5 (setting [1]) and 1000 to 10000 nM at VIM-2.
As to `NC1CN(C2CCC(CC(=O)N[C@H]3Cc4cccc(C(=O)O)c4OB3O)CC2)C1` (stereo partly drawn) [Example 35, (3R)-3-(2-(4-(3-aminoazetidin-1-yl)cyclohexyl)acetamido)-2-hydroxy-3,4-dihydro-2H-benzo[e][1,2]oxaborinine-8-carboxylic acid], the IC50 on KPC-2 is below 100 nM; at OXA-1 it was below 100 nM; on SHV-5 (setting [1]) it was below 100 nM; on VIM-2, 100 to 1000 nM.
With `O=C(CC1CCC(NC2CNC2)CC1)N[C@H]1Cc2cccc(C(=O)O)c2OB1O` (stereo partly drawn) [Example 36, (3R)-3-(2-(4-(azetidin-3-ylamino)cyclohexyl)acetamido)-2-hydroxy-3,4-dihydro-2H-benzo[e][1,2]oxaborinine-8-carboxylic acid], the IC50 at KPC-2 was below 100 nM; on OXA-1, below 100 nM; at SHV-5 (setting [1]) it was below 100 nM; at VIM-2 it was 1000 to 10000 nM.
Regarding `N=C(N)NC1CN(C2CCC(CC(=O)N[C@H]3Cc4cccc(C(=O)O)c4OB3O)CC2)C1` (stereo partly drawn) [Example 41, (3R)-3-(2-(4-(3-guanidinoazetidin-1-yl)cyclohexyl)acetamido)-2-hydroxy-3,4-dihydro-2H-benzo[e][1,2]oxaborinine-8-carboxylic acid], the concentration for half-maximal inhibition (IC50) on KPC-2 is below 100 nM; at OXA-1, below 100 nM; on SHV-5 (setting [1]), below 100 nM; at VIM-2, 100 to 1000 nM.
Consider `O=C(CC1CCC(O)CC1)N[C@H]1Cc2cccc(C(=O)O)c2OB1O` (stereo partly drawn) [Example 47, (3R)-2-hydroxy-3-(2-(4-hydroxycyclohexyl)acetamido)-3,4-dihydro-2H-benzo[e][1,2]oxaborinine-8-carboxylic acid], for which the IC50 at KPC-2 was below 100 nM; at OXA-1, below 100 nM; on SHV-5 (setting [1]), below 100 nM; at VIM-2, 1000 to 10000 nM.
